The text below walks through data of patent US5489592A, “3,4-dihydro-4-oxo-3-(2-propenyl)-1-phthalazineacetic acids and derivatives, their preparations and medicines containing them” (Lipha, Lyonnaise Industrielle Pharmaceutique, priority 1991, dated 1996).

For one assay, the target named is T1, aldose reductase (Rattus norvegicus, UniProt P07943).
T1 construct: The aldose reductase used is obtained from crystallins from male Wistar rats; from tissue; host or cells: eye lens of male Wistar rats, enzymatic extract
The assay can be described thus: In vitro study: inhibition of aldose reductase. The following applies: rat crystallin enzyme, NADPH, L-glyceraldehyde, 340 nm; confidence interval in parentheses. It is filed as biochemical, male Wistar rats. On the procedure: 1) In vitro study: inhibition of aldose reductase
The aldose reductase used is obtained from crystallins from male Wistar rats according to a modification of the method of S. Hayman et al. (Journal of Biological Chemistry, 240, p. 877, 1965). The enzymatic extract is diluted in a phosphate buffer in the presence of NADPH and of various concentrations of the products to be tested. The reaction is triggered by L-glyceraldehyde and the rate of reaction is measured by monitoring the disappearance of NADPH by spectrophotometry at 340 nm. The inhibition of the rate of reaction is calculated for each concentration of products and then the concentration necessary for a 50% inhibition (IC50) is evaluated by linear interpolation.

The test system of assay [1] is level of sorbitol in the crystallins. The assay can be described thus: In vivo study: reduction in the accumulation of sorbitol in streptozotocin-diabetic rats. Details: species or system male Wistar rats. Particulars: Rattus norvegicus, oral, 4, 30 and 52 h after streptozotocin (60 mg/kg i.v.), 50% reduction, confidence interval in parentheses. Here is the method:
2) In vivo study: reduction in the accumulation of sorbitol
Male Wistar rats, weighing 200 to 250 g, are made diabetic by intravenous injection of streptozotocin (60 mg/kg). They then receive an oral treatment of the products to be tested, in the form of a 10% suspension in gum arabic, 4 hours, 30 hours and 52 hours after injection of streptozotocin. Eighteen hours after the last oral treatment, the rats are stunned and decapitated and their crystallins are then withdrawn. After extraction, the level of sorbitol in the crystallins is measured according to the enzymatic method described by H. U. Bergmeyer (Methods of Enzymatic Analysis, edited by H. U. Bergmeyer, Academic Press, New York, 3, p. 1323, 1974).
Various doses of products are tested and the inhibitions are calculated with respect to a control batch of diabetic rats. The dose necessary for a 50% reduction in the level of sorbitol is then evaluated by linear interpolation.

With `O=C(O)Cc1nn(C/C(F)=C/c2cccc(C(F)(F)F)c2)c(=O)c2ccccc12` [Example B49, (Z) -3-[2-fluoro-3-[3-(trifluoromethyl)phenyl]-2-propenyl]-3,4-dihydro-4-oxo-1-phthalazineacetic acid], the half-maximal inhibitory concentration (IC50) on aldose reductase amounted to 8.4 nM. Further, in assay [1], the ED50 was found to be 8.2 mg/kg.

`O=C(O)Cc1nn(C/C=C/c2c(F)ccc(C(F)(F)F)c2F)c(=O)c2ccccc12` [Example B41, (E) -3-[3-[2,6-difluoro-3-(trifluoromethyl)phenyl]-2-propenyl]-3,4-dihydro-4-oxo-1-phthalazineacetic acid]: at aldose reductase, the IC50 was 8.6 nM. In addition, the ED50 in assay [1] was found to be 4.4 mg/kg.

With `O=C(O)Cc1nn(C/C=C/c2c(F)c(F)cc(F)c2F)c(=O)c2ccccc12` [Example B43, (E) -3-[3-(2,3,5,6-tetrafluorophenyl)-2-propenyl]-3,4-dihydro-4-oxo-1-phthalazineacetic acid], on aldose reductase, the IC50 was 9.6 nM. In assay [1], the ED50 is 5.8 mg/kg.

On to `O=C(O)Cc1nn(C/C=C/c2c(F)ccc(Br)c2F)c(=O)c2ccccc12` [Example B40, (E) -3-[3-(3-bromo-2,6-difluorophenyl)-2-propenyl]-3,4-dihydro-4-oxo-1-phthalazineacetic acid], for which the IC50 at aldose reductase is 8.2 nM. The ED50 in assay [1] stood at 6.1 mg/kg.

Regarding `O=C(O)Cc1nn(C/C=C/c2cccc(C(F)(F)F)c2F)c(=O)c2ccccc12` [Example B1, (E) -3-[3-[2-fluoro-3-(trifluoromethyl)phenyl]-2-propenyl]-3,4-dihydro-4-oxo-1-phthalazineacetic acid], the IC50 at aldose reductase was found to be 10.2 nM. The ED50 in assay [1] was found to be 4.8 mg/kg.

Consider `O=C(O)Cc1nn(C/C=C/c2c(F)ccc(F)c2F)c(=O)c2ccccc12` [Example B38, (E) -3-[3-(2,3,6-trifluorophenyl)-2-propenyl]-3,4-dihydro-4-oxo-1-phthalazineacetic acid], for which the IC50 at aldose reductase is 8.9 nM. Also, in assay [1], the ED50 is 4.7 mg/kg.

For orientation: IC50 means the concentration needed to halve the response being measured. The ED50 is the dose that gives a 50% effect, or the effect in half of the subjects.
